Measured values: patent US20250179088A9 (ZYMEWORKS BC INC., priority 2020, published 2025)

Legend:
[1] = test system: PBMCs; assay: PBMC assay, IL-6 release (HTRF); assay type: cell-based; conditions: PBMCs from healthy donors, overnight, IL-6 induction by HTRF, average of quadruplicate
Procedure: Whole peripheral blood was obtained from healthy donors. PBMCs were isolated from peripheral blood by density gradient centrifugation. […] The plasma layer containing PBMCs was poured into a new tube and washed twice. Isolated PBMCs were either used fresh or thawed from previously frozen. 1×10^5 PBMCs were cultured with titrating concentrations of compounds of Formula I overnight followed by assaying for cytokines by homogeneous time resolved fluorescence (HTRF).

[2] = target: T1, TLR7 (Homo sapiens, UniProt Q9NYK1); assay: Reporter gene assay, HEK-Blue TLR7 reporter cells (SEAP)
T1 sequence (Q9NYK1 27-1049): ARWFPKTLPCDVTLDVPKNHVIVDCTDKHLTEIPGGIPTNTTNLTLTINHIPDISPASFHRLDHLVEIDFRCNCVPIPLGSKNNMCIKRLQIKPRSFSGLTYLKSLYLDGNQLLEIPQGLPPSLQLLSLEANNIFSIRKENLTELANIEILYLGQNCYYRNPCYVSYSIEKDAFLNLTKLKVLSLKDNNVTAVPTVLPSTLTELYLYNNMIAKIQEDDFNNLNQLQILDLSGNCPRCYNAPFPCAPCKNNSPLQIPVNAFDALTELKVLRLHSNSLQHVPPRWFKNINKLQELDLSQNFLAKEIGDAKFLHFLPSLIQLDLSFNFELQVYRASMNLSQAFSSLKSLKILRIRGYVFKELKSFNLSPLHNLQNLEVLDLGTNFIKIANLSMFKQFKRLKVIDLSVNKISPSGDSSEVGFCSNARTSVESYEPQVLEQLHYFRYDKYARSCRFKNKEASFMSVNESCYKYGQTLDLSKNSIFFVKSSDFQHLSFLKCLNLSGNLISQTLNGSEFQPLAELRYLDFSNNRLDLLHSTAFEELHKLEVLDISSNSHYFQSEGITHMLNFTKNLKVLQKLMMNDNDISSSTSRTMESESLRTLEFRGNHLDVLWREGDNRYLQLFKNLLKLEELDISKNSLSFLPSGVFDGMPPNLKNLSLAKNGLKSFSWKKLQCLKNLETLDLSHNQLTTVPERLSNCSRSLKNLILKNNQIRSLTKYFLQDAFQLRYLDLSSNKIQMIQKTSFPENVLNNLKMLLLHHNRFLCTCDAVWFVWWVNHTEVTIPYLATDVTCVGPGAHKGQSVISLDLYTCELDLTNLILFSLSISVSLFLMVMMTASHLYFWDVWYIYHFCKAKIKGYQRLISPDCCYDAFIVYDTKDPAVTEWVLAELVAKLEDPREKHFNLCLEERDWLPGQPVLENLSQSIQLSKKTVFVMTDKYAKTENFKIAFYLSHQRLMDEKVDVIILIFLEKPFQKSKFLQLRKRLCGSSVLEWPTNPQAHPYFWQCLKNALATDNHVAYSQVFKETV
Procedure: (§1) 3×10^4 HEK-Blue™ TLR7 or 3×10^4 TLR8 reporter cells (InvivoGen, San Diego, CA) were treated with titrated (4-fold) amounts of test compound. […] Cells were incubated overnight at 37° C. and 5% CO2, then absorbance (620 and 655 nm) was read on a Synergy™ H1 microplate reader.

[3] = target: T2, TLR8 (Homo sapiens, UniProt Q9NR97); assay: Reporter gene assay, HEK-Blue TLR8 reporter cells (SEAP)
T2 sequence (Q9NR97 27-1041): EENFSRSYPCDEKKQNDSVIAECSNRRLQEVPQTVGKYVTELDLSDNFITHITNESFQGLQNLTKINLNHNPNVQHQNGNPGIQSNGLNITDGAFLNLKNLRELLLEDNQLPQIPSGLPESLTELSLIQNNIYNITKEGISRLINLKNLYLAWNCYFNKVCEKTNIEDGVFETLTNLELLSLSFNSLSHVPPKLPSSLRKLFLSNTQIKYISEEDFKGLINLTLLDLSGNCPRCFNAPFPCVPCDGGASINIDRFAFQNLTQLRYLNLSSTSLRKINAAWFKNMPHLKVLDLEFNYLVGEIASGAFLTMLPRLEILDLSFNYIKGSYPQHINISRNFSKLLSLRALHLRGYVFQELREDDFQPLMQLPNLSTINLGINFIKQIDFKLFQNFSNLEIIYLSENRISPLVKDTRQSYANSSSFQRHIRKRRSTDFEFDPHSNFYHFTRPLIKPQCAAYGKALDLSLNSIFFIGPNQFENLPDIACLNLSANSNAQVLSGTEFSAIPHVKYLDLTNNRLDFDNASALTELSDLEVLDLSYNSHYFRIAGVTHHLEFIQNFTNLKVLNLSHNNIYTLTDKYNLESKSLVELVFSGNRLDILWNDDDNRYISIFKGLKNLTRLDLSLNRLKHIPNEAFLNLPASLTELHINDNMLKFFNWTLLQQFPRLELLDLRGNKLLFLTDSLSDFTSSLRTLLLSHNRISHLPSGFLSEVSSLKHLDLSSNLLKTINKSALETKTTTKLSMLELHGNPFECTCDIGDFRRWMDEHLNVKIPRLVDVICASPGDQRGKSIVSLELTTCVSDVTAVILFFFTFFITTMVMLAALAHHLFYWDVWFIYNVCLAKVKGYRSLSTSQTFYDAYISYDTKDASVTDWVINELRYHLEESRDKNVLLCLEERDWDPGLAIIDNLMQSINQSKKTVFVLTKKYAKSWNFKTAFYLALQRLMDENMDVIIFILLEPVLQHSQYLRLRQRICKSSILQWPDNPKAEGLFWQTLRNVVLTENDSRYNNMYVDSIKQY
Procedure: as §1

Row | SMILES | EC50 [1] [nM] | EC50 [2] [nM] | EC50 [3] [nM]
1 | CCCCc1nc2c(N)nc3ccsc3c2n1CCCCCNCc1ccc(CO)cc1 [Compound 179, (4-(((5-(4-amino-2-butyl-1H-imidazo[4,5-d]thieno[3,2-b]pyridin-1-yl)pentyl)amino)methyl)phenyl)methanol] | 76 | 12 | 260
2 | CCNCc1nc2c(N)nc3ccsc3c2n1Cc1ccc(CN(CC)CC)cc1 [Compound 269, 1-(4-((diethylamino)methyl)benzyl)-2-((ethylamino)methyl)-1H-imidazo[4,5-d]thieno [3,2-b]pyridin-4-amine] | 557 | 186 | > 1000
3 | CCCCc1nc2c(N)nc3ccsc3c2n1CCCCCNCCCCCO [Compound 178, 5-((5-(4-amino-2-butyl-1H-imidazo[4,5-d]thieno[3,2-b]pyridin-1-yl)pentyl)amino) pentan-1-ol] | > 1000 | 37 | > 1000
4 | CCCCc1nc2c(N)nc3ccsc3c2n1Cc1cccc(CN2CCN(CCN3CCOCC3)CC2)c1 [Compound 200, 2-butyl-1-(3-((4-(2-morpholinoethyl)piperazin-1-yl)methyl)benzyl)-1H-imidazo[4,5-d]thieno[3,2-b]pyridin-4-amine] | > 1000 | 550 | > 1000
5 | CCCCc1nc2c(N)nc3ccsc3c2n1Cc1ccc(CNC2CCCN(C(=O)OC(C)(C)C)C2)cc1 (stereo not drawn) [Compound 262, tert-butyl 3-((4-((4-amino-2-butyl-1H-imidazo[4,5-d]thieno[3,2-b]pyridin-1-yl)methyl)benzyl)amino)piperidine-1-carboxylate] | > 1000 | 95 | > 1000
6 | CCCCc1nc2c(N)nc3ccsc3c2n1CCCCCO [Compound 172, 5-(4-amino-2-butyl-1H-imidazo[4,5-d]thieno[3,2-b]pyridin-1-yl)pentan-1-ol] | 580 | 27 | > 1000
7 | CCCCc1nc2c(N)nc3ccsc3c2n1Cc1cccc(CN2CCN(C(=O)OC(C)(C)C)CC2)c1 [Compound 196, tert-butyl 4-(3-((4-amino-2-butyl-1H-imidazo[4,5-d]thieno[3,2-b]pyridin-1-yl)methyl)benzyl)piperazine-1-carboxylate] | > 1000 | > 1000 | > 1000
8 | CCCCc1nc2c(N)nc3ccsc3c2n1Cc1cccc(CNCC(C)(C)O)c1 [Compound 205, 1-((3-((4-amino-2-butyl-1H-imidazo[4,5-d]thieno[3,2-b]pyridin-1-yl)methyl)benzyl)amino)-2-methylpropan-2-ol] | 160 | 110 | 190
9 | CCCCc1nc2c(N)nc3ccsc3c2n1Cc1ccc(CO)o1 [Compound 253, (5-((4-amino-2-butyl-1H-imidazo[4,5-d]thieno[3,2-b]pyridin-1-yl)methyl)furan-2-yl)methanol] | > 1000 | > 1000 | > 1000
10 | CCCCc1nc2c(N)nc3ccsc3c2n1Cc1cccc(CNCc2cc[nH]c2)c1 [Compound 197, 1-(3-((((1H-pyrrol-3-yl)methyl)amino)methyl)benzyl)-2-butyl-1H-imidazo[4,5-d]thieno [3,2-b]pyridin-4-amine] | 290 | 63 | 490
11 | CCCCc1nc2c(N)nc3ccsc3c2n1Cc1ccccc1CN1CCC(c2ccncc2)CC1 [Compound 219, 2-butyl-1-(2-((4-(pyridin-4-yl)piperidin-1-yl)methyl)benzyl)-1H-imidazo[4,5-d]thieno[3,2-b]pyridin-4-amine] | > 1000 | > 1000 | > 1000
12 | CCCCc1nc2c(N)nc3ccsc3c2n1Cc1ccccc1CNCCCCCO [Compound 223] | > 1000 | > 1000 | > 1000
13 | CCCCc1nc2c(N)nc3ccsc3c2n1Cc1ccc(C=O)cc1 [Compound 164, 4-((4-amino-2-butyl-1H-imidazo[4,5-d]thieno[3,2-b]pyridin-1-yl)methyl)benzaldehyde] | > 1000 | > 1000 | > 1000
14 | CCCCc1nc2c(N)nc3ccsc3c2n1Cc1ccccc1CN [Compound 216, 1-(2-(aminomethyl)benzyl)-2-butyl-1H-imidazo[4,5-d]thieno[3,2-b]pyridin-4-amine] | > 1000 | > 1000 | > 1000
15 | CCCCc1nc2c(N)nc3ccsc3c2n1Cc1nc(CN2CCNCC2)cs1 [Compound 242, 2-butyl-1-((4-(piperazin-1-ylmethyl)thiazol-2-yl)methyl)-1H-imidazo[4,5-d]thieno[3,2-b]pyridin-4-amine] | > 1000 | 150 | > 1000
16 | CCCCc1nc2c(N)nc3ccsc3c2n1Cc1ccc(CN2CCN(C(=O)OC(C)(C)C)CC2)cc1 [Compound 153, tert-butyl 4-(4-((4-amino-2-butyl-1H-imidazo[4,5-d]thieno[3,2-b]pyridin-1-yl)methyl)benzyl)piperazine-1-carboxylate] | 420 | 85 | > 1000
17 | CCCCc1nc2c(N)nc3ccsc3c2n1Cc1ccccc1CNCc1ccc(CO)cc1 [Compound 224, (4-(((2-((4-amino-2-butyl-1H-imidazo[4,5-d]thieno[3,2-b]pyridin-1-yl)methyl)benzyl)amino)methyl)phenyl)methanol] | > 1000 | > 1000 | > 1000
18 | CCCCc1nc2c(N)nc3ccsc3c2n1Cc1ccc(CNc2ccc3c(c2)CCN(C(=O)OC(C)(C)C)C3)cc1 [Compound 261, tert-butyl 6-((4-((4-amino-2-butyl-1H-imidazo[4,5-d]thieno[3,2-b]pyridin-1-yl)methyl)benzyl)amino)-3,4-dihydroisoquinoline-2(1H)-carboxylate] | 602 | 106 | > 1000
19 | CCCCc1nc2c(N)nc3ccsc3c2n1Cc1nc(CO)cs1 [Compound 228, (2-((4-amino-2-butyl-1H-imidazo[4,5-d]thieno[3,2-b]pyridin-1-yl)methyl)thiazol-4-yl)methanol] | > 1000 | 220 | > 1000
20 | CCCCc1nc2c(N)nc3ccsc3c2n1Cc1ccccc1CN1CCNCC1 [Compound 218, 2-butyl-1-(2-(piperazin-1-ylmethyl)benzyl)-1H-imidazo[4,5-d]thieno[3,2-b]pyridin-4-amine] | > 1000 | > 1000 | > 1000
21 | CCCCc1nc2c(N)nc3ccsc3c2n1Cc1nc(CNCc2ccc(CO)cc2)cs1 [Compound 237, (4-((((2-((4-amino-2-butyl-1H-imidazo[4,5-d]thieno[3,2-b]pyridin-1-yl)methyl)thiazol-4-yl)methyl)amino)methyl)phenyl)methanol] | 500 | 190 | > 1000
